Results published in US8138304B2, “Neural regeneration peptides and formulations thereof” (Neuren Pharmaceuticals Limited, priority 2005, dated 2012).
Where no end group is shown, it is not given here.

Test system: mouse neural stem cells (MEB-5 cells)
Assay: Haptotactic migration assay, physiological (injury-free) conditions
Type: cell-based
Conditions: 0.1 ng/ml NRP coating
Experimental: An NRP was tested for migration-inducing/chemoattractive activity on mouse neural stem cells in a haptotactic migration assay as described below.
Control wells of Transwell plates (Corning) with 12 μm pore size were coated in 1.5 ml of the BSA/PBS vehicle. Remaining plates were coated using 0.1 ng/ml of NRP (SEQ ID NO: 1) (prepared in PBS containing 10 ug/ml BSA).
Laminin (7 μg/ml) was used as extracellular matrix (ECM) coating for mouse primary stem cells. The matrix was incubated at 37° C.; 5% C02 for 2 hrs at room temperature. The cells were seeded onto the inserts (30,000 cells per well). Plates were fixed at 1-2 days in vitro (DIV).
A 5 ug/mL PDL/PLL mixture (in PBS) was used to coat inserts. Subsequently the inserts were rinsed with MilliQ water.
Inserts were discarded and wells fixed in successive dilutions of PFA (0.4, 1.2, 3 and 4%) for 3-5 min in each dilution. […] The wells were rinsed and stored in PBS until counting.

REGRRAAPGRAGG-NH2 (listed as Homo sapiens) [SEQ ID NO: 1, 13-mer NRP analogue]
more cells migrating in comparison with BSA-vehicle: 55.4%
